Experimental data taken from patent publication US12329160B2, “Activated ferrate compositions” (THE TEXAS A & M UNIVERSITY SYSTEM, priority 2018, dated 2025).

Legend:
[1] = Oxidation of individual organic contaminants by Fe^VI with or without S2O3^2− in buffered ultrapure water, HPLC; format: physicochemical; conditions: for partial oxidation by Fe^VI without S2O3^2−: ratio 25:1 [Fe^VI]:[contaminants], Fe^VI 100.0 μM, pH 8.00, 30 seconds
Protocol: To test liquid ferrate solutions using second approach, batch experiments were conducted in a series of 100 mL glass jars under constant stirring rate (400 rpm) with a magnetic stirrer. Oxidation of each micropollutant or their mixtures by Fe^VI with or without S2O3^2− was initiated by mixing equal solution volumes of 10 mL, and the final reaction solutions were kept at 8.00±0.04.
(§1) The stock solutions of these contaminants (10.0 μM) were prepared in 10.0 mM Na2HPO4, and diluted using the same buffer solution before the removal experiments. […] Solutions of Fe^VI were prepared by adding K2FeO4 powders to 5.0 mM Na2HPO4/1.0 mM Na2B4O7.10H2O buffer solution. The concentrations of Fe^VI were quantitatively measured using an UV-visible spectrometer at a wavelength of 510 nm with a molar absorption coefficient of ε510 nm=1150 M^−1 cm^−1: The pH value of the contaminant solutions was adjusted to 7.50 via the addition of diluted H3PO4 before mixing with Fe^VI solution to achieve the desired reaction pH at 8.00±0.04. Methanol and phosphoric acid (85%) of high performance liquid chromatography (HPLC) grade were used in testing. 5,5-dimethyl-1-pyrroline-N-oxide (DMPO) was used as the spin trap reagent for identifying the possible reactive inorganic radicals (e.g., .OH and/or SO4.^−) in the oxidation system. All the other chemicals (e.g., hydroxylamine and permanganate) were provided from commercial sources and used without further purification. Two kinds of natural water samples were individually obtained from Brazos River (N 30°42′33″, E 96°28′5″, College Station, Texas) and Lake Bryan (N 30°33′30″, E 96°25′25″, Bryan, Texas). […] These real water samples were filtered through 0.45 μm hydrophilic PVDF membrane to remove the insoluble particles before spiking the contaminant mixtures (1.0 μM for each compound). 20.0 mM borate buffer was used to stabilize the solution pH of the real waters at 8.00±0.04. All the other solutions were prepared using the ultrapure water (resistivity >18 MΩ cm^−1).
(§2) Experiments were conducted in a series of 100 mL glass jars under constant stirring rate (400 rpm) with a magnetic stirrer. Oxidation of each contaminant or their mixtures by Fe^VI with or without S2O3^2− was initiated by mixing equal solution volumes of 10 mL, and the final reaction solutions were kept at 8.00±0.04. The concentration of Fe^VI was maintained at 100.0 μM, and the ratios of [S2O3^2−]:[Fe^VI] in the system were varied from 0 to 5.0 for aqueous removal of TMP (5.0 μM). […] After 30 seconds of oxidation, 20.0 μL NH2OH solution (1 M) was added to quench the reactions. Samples were transferred into high performance liquid chromatography (HPLC) vials, and were subsequently analyzed using the HPLC method. Similar experiments using TMP as a target contaminant were also performed by replacing Fe^VI with Mn^VII or chlorine under the same conditions.

[2] = Elimination of six pharmaceuticals by Fe^VI—S2O3^2− in river water (Brazos River); format: physicochemical; conditions: mixture 1.0 μM each, [S2O3^2−]:[Fe^VI] 0.125, Fe^VI 150.0 μM, pH 8.0, 30 seconds
Protocol: (§3) The contaminants are: carbamazepine (CMZ), diclofenac (DCF), enrofloxacin (ENR), propranolol (PPN), sulfadimethoxine (SMX), and trimethoprim (TMP). Experimental conditions: [Each contaminant]0 in mixture of samples=1.0 μM, [Fe^VI]0:[Total contaminants]=25:1, [S2O3^2−]0:[Fe^VI]0=0.125, [Fe^VI]0=150.0 μM, [S2O3^2−]0=18.75 μM, pH=8.00±0.05, reaction time=30 s).
The stock solutions of these contaminants (10.0 μM) were prepared in 10.0 mM Na2HPO4, and diluted using the same buffer solution before the removal experiments. Potassium ferrate (K2FeO4, purity >90%) was prepared using a wet chemical synthesis method. Solutions of Fe^VI were prepared by adding K2FeO4 powders to 5.0 mM Na2HPO4/1.0 mM Na2B4O7.10H2O buffer solution. The concentrations of Fe^VI were quantitatively measured using an UV-visible spectrometer at a wavelength of 510 nm with a molar absorption coefficient of ε510 nm=1150 M^−1 cm^−1: The pH value of the contaminant solutions was adjusted to 7.50 via the addition of diluted H3PO4 before mixing with Fe^VI solution to achieve the desired reaction pH at 8.00±0.04. […] No test contaminants were detected in these waters, and the basic physico-chemical parameters are pH, 8.36, UV254, 0.071 and UV400, 0.006 for river water; and pH, 9.43, UV254, 0.202, and UV400, 0.017 for lake water. […]

[3] = Elimination of six pharmaceuticals by Fe^VI—S2O3^2− in lake water (Lake Bryan); format: physicochemical; conditions: mixture 1.0 μM each, [S2O3^2−]:[Fe^VI] 0.125, Fe^VI 150.0 μM, pH 8.0, 30 seconds
Protocol: as §3, §1
as §2, with “conditions. All experiments were carried out at room temperature, and were at least in triplicates.” for “conditions.”
For the chromatographic separation of six contaminant mixtures (CMZ, DCF, ENR, PPN, SMX, and TMP), a solvent gradient method was used with flow rate of 0.8 mL/min. This method started with 35% B (0-7.5 min), followed by 35% B to 55% B (7.5-10.5 min), 55% B to 70% B (10.5-15.5 min), 70% B to 90% B (15.5-18.5 min), 90% B (18.5-25.0 min), 90% B to 35% B (25.0-25.5 min) and post-equilibration at 35% B (25.5-33.0 min).

[4] = pH 8.0; cited from earlier work

Compound | partial oxidation by Fe^VI without S2O3^2− [1] [%] | removal by Fe^VI—S2O3^2− in river water [2] | removal by Fe^VI—S2O3^2− in lake water [3] | oxidation of TMP by Fe^VI—S2O3^2− ([1]; molar ratio [S2O3^2−]:[Fe^VI] 0.125, TMP 5.0 μM, Fe(VI) 100.0 μM, pH 8.0, 30 seconds) [%] | elimination of TMP by Fe^VI—S2O3^2− ([1]; molar ratio [S2O3^2−]:[Fe^VI] 5.0, TMP 5.0 μM, Fe(VI) 100.0 μM, pH 8.0, 30 seconds) | oxidation of TMP by Fe^VI ([1]; without S2O3^2−, TMP 5.0 μM, Fe(VI) 100.0 μM, pH 8.0, quenched after 30 seconds, oxygenated) | k, reactivity of Fe^VI with DMSO [4]
NC(=O)N1c2ccccc2C=Cc2ccccc21 [CMZ, Carbamazepine] | 25.11 | about 80% | about 50% | – | – | – | –
O=C(O)Cc1ccccc1Nc1c(Cl)cccc1Cl [DCF, Diclofenac] | 20.85 | – | about 80% | – | – | – | –
CCN1CCN(c2cc3c(cc2F)c(=O)c(C(=O)O)cn3C2CC2)CC1 [ENR, Enrofloxacin] | 41.02 | about 80% | about 50% | – | – | – | –
CC(C)NCC(O)COc1cccc2ccccc12 (stereo not drawn) [PPN, Propranolol] | 32.46 | – | about 80% | – | – | – | –
COc1cc(NS(=O)(=O)c2ccc(N)cc2)nc(OC)n1 [SMX, Sulfadimethoxine] | 47.27 | – | about 80% | – | – | – | –
COc1cc(Cc2cnc(N)nc2N)cc(OC)c1OC [TMP, Trimethoprim] | 22.04 | – | about 80% | 100 | about 4% | about 16% | –
Potassium ferrate [Fe^VI] | – | – | – | – | – | – | about 1 M^−1 s^−1
